Values after ≈ are worked out from the molar mass of the structure shown. Like-named read-outs stand apart in the source and are kept apart here.
How the values were obtained:
Format in all cases: cell-based
Gram - = test: MIC test, average over the 15 gram-negative test germs; conditions: 24 h
Experimental: (§1) As to the antibacterial activity, there was determined the Least (Minimum) Inhibiting Concentration (MIC), by working according to the following operative conditions.
(§2) There were used suspensions of test germs (5 gram-positive and 15 gram-negative) having a known titre, kept freezed at -80°C and diluted, at the time of use, in peptonized water up to a concentration of 1-2.10⁷ cfu/ml.
(§3) A few mg of the products, according to the invention were weighed sufficient for preparing parent solutions in DMSO + NaOH (1N) containing 2560 µg/ml (64µg/ml/dish). From the thus prepared parent solutions there were prepared 12 serial dilutions (1:2) down to the concentration of 1.25 µg/ml.
(§4) 0.5 ml of the different dilutions of each product were distributed on dishes containing 19.5 ml of agarized medium (TSA), maintained in a fluid state at the temperature of 50°C. After slight stirring, the dishes were made to solidify and dry under hood (laminar flow).
(§5) The MIC tests (Least or "Minimum" Inhibiting Concentration) were performed by using a Steers multiwell inoculator having 36 wells, each containing 200 µl of bacterial suspension.
(§6) After inoculation, the dishes were placed into a thermostat and checked after 24 h of incubation at 35°C.
(§7) The MIC is defined as the lowermost product concentration (µg/ml) inhibiting the visible growth of the microorganisms.

[1] = tested on: Staphylococcus aureus MPR 5; test: MIC test, agar dilution with Steers multiwell inoculator; conditions: MPR5, TSA dishes, 24 h at 35°C, read-out: Minimum Inhibiting Concentration
Experimental: as §1, §2, §3, §4, §5, §6, §7

Proteus vulgaris CNUR 6 = test: as above; conditions: CNUR6, TSA dishes, 24 h at 35°C, read-out: Minimum Inhibiting Concentration
Experimental: as §1, §2, §3, §4, §5, §6, §7

[2] = tested on: Enterobacter cloacae OMNF 1153; test: as above; conditions: OMNF1153, TSA dishes, 24 h at 35°C, read-out: Minimum Inhibiting Concentration
Experimental: as §1, §2, §3, §4, §5, §6, §7

[3] = tested on: Pseudomonas aeruginosa CNUR 4; test: as above; conditions: CNUR4, TSA dishes, 24 h at 35°C, read-out: Minimum Inhibiting Concentration
Experimental: as §1, §2, §3, §4, §5, §6, §7

[4] = tested on: Acinebacter calcoloaceticus OSMPV 1130; test: as above; conditions: TSA dishes, 24 h at 35°C, read-out: Minimum Inhibiting Concentration
Experimental: as §1, §2, §3, §4, §5, §6, §7

Escherichia coli ISF 432 = test: as above; conditions: ISF432, TSA dishes, 24 h at 35°C, read-out: Minimum Inhibiting Concentration
Experimental: as §1, §2, §3, §4, §5, §6, §7

[5] = tested on: Escherichia coli ATCC 8739; test: as above; conditions: ATCC8739, TSA dishes, 24 h at 35°C, read-out: Minimum Inhibiting Concentration
Experimental: as §1, §2, §3, §4, §5, §6, §7

[6] = tested on: Pseudomonas aeruginosa CNUR 2; test: as above; conditions: CNUR2, TSA dishes, 24 h at 35°C, read-out: Minimum Inhibiting Concentration
Experimental: as §1, §2, §3, §4, §5, §6, §7

[7] = tested on: Pseudomonas aeruginosa ATCC 9027; test: as above; conditions: ATCC9027, TSA dishes, 24 h at 35°C, read-out: Minimum Inhibiting Concentration
Experimental: as §1, §2, §3, §4, §5, §6, §7

Escherichia coli 120 = test: as above; conditions: TSA dishes, 24 h at 35°C, read-out: Minimum Inhibiting Concentration
Experimental: as §1, §2, §3, §4, §5, §6, §7

Shighella enteritidis = test: as above; conditions: TSA dishes, 24 h at 35°C, read-out: Minimum Inhibiting Concentration
Experimental: as §1, §2, §3, §4, §5, §6, §7

[8] = tested on: Enterobacter cloacae OMNF 1174; test: as above; conditions: OMNF1174, TSA dishes, 24 h at 35°C, read-out: Minimum Inhibiting Concentration
Experimental: as §1, §2, §3, §4, §5, §6, §7

[9] = tested on: Providencia stuardii CNUR 5; test: as above; conditions: CNUR5, TSA dishes, 24 h at 35°C, read-out: Minimum Inhibiting Concentration
Experimental: as §1, §2, §3, §4, §5, §6, §7

[10] = tested on: Streptococcus facealis LEP Br.; test: as above; conditions: TSA dishes, 24 h at 35°C, read-out: Minimum Inhibiting Concentration
Experimental: as §1, §2, §3, §4, §5, §6, §7

Escherichia coli CNUR 1 = test: as above; conditions: CNUR1, TSA dishes, 24 h at 35°C, read-out: Minimum Inhibiting Concentration
Experimental: as §1, §2, §3, §4, §5, §6, §7

[11] = tested on: Staphylococcus aureus ATCC 6538; test: as above; conditions: ATCC6538, TSA dishes, 24 h at 35°C, read-out: Minimum Inhibiting Concentration
Experimental: as §1, §2, §3, §4, §5, §6, §7

[12] = tested on: Staphylococcus epidermidis CPHL A2; test: as above; conditions: CPHLA2, TSA dishes, 24 h at 35°C, read-out: Minimum Inhibiting Concentration
Experimental: as §1, §2, §3, §4, §5, §6, §7

[13] = tested on: Staphylococcus epidermidis HCF Berset C.; test: as above; conditions: TSA dishes, 24 h at 35°C, read-out: Minimum Inhibiting Concentration
Experimental: as §1, §2, §3, §4, §5, §6, §7

Escherichia coli CNUR 8 = test: as above; conditions: CNUR8, TSA dishes, 24 h at 35°C, read-out: Minimum Inhibiting Concentration
Experimental: as §1, §2, §3, §4, §5, §6, §7

[14] = tested on: Klebsiella pneumoniae ATCC 10031; test: as above; conditions: ATCC10031, TSA dishes, 24 h at 35°C, read-out: Minimum Inhibiting Concentration
Experimental: as §1, §2, §3, §4, §5, §6, §7

Gram + = test: MIC test, average over the 5 gram-positive test germs; conditions: 24 h
Experimental: as §1, §2, §3, §4, §5, §6, §7

[15] = geometrical average of the MIC over the 15 Gram - strains, read-out: Geometrical Average
[16] = mean log of the MIC over the 15 Gram - strains, read-out: Log (converted)
[17] = geometrical average of the MIC over the 5 Gram + strains, read-out: Geometrical Average

Compound | MIC (Gram -; [15]) | MIC (Gram -; [16]) | MIC [1] | MIC (Proteus vulgaris CNUR 6) | MIC [2] | MIC [3] | MIC [4] | MIC (Escherichia coli ISF 432) | MIC [5] | MIC [6] | MIC [7] | MIC (Escherichia coli 120) | MIC [8] | MIC [9] | MIC [10] | MIC (Escherichia coli CNUR 1) | MIC [11] | MIC [12] | MIC [13] | MIC (Escherichia coli CNUR 8) | further results
CN1CCN(c2cc3c(cc2N)c(=O)c(C(=O)O)cn3C2CC2)CC1 [Compound 8] | 0.861 µg/mL (≈ 2.51 µM) | 0.861 µg/mL (≈ 2.51 µM) | 2 µg/mL (≈ 5.84 µM) | 64 µg/mL (≈ 187 µM) | 0.25 µg/mL (≈ 0.73 µM) | 64 µg/mL (≈ 187 µM) | 4 µg/mL (≈ 11.7 µM) | 0.03 µg/mL (≈ 0.0876 µM) | 0.25 µg/mL (≈ 0.73 µM) | 16 µg/mL (≈ 46.7 µM) | 4 µg/mL (≈ 11.7 µM) | 0.12 µg/mL (≈ 0.35 µM) | 0.25 µg/mL (≈ 0.73 µM) | 8 µg/mL (≈ 23.4 µM) | 32 µg/mL (≈ 93.5 µM) | 0.25 µg/mL (≈ 0.73 µM) | 2 µg/mL (≈ 5.84 µM) | 2 µg/mL (≈ 5.84 µM) | 4 µg/mL (≈ 11.7 µM) | 0.12 µg/mL (≈ 0.35 µM) | MIC (Shighella enteritidis): 0.25 µg/mL (≈ 0.73 µM); MIC [14]: 0.03 µg/mL (≈ 0.0876 µM); MIC (Gram +; read-out: Log (converted)): 4 µg/mL (≈ 11.7 µM)
Nc1cc2c(=O)c(C(=O)O)cn(C3CC3)c2cc1N1CCC(O)CC1 [Compound 16] | 2.08 µg/mL (≈ 6.05 µM) | 2.07 µg/mL (≈ 6.04 µM) | 4 µg/mL (≈ 11.6 µM) | 128 µg/mL (≈ 373 µM) | 2 µg/mL (≈ 5.82 µM) | 128 µg/mL (≈ 373 µM) | 2 µg/mL (≈ 5.82 µM) | 0.03 µg/mL (≈ 0.0874 µM) | 0.03 µg/mL (≈ 0.0874 µM) | 128 µg/mL (≈ 373 µM) | 8 µg/mL (≈ 23.3 µM) | 0.5 µg/mL (≈ 1.46 µM) | 2 µg/mL (≈ 5.82 µM) | 8 µg/mL (≈ 23.3 µM) | 8 µg/mL (≈ 23.3 µM) | 2 µg/mL (≈ 5.82 µM) | 4 µg/mL (≈ 11.6 µM) | 2 µg/mL (≈ 5.82 µM) | 4 µg/mL (≈ 11.6 µM) | 1 µg/mL (≈ 2.91 µM) | MIC [14]: 0.03 µg/mL (≈ 0.0874 µM); MIC (Gram +; [17]): 4 µg/mL; MIC (Gram +; read-out: Log (converted)): 4 µg/mL (≈ 11.6 µM)
Cc1c(N2CCc3ccccc3C2)c(N)cc2c(=O)c(C(=O)O)cn(C3CC3)c12 [Compound 36, 6-amino-1-cyclopropyl-8-methyl-7-[2-(1,2,3,4-tetrahydroisoquinolinyl)]-carboxylic acid] | 3.98 µg/mL (≈ 10.2 µM) | 3.98 µg/mL (≈ 10.2 µM) | 0.5 µg/mL (≈ 1.28 µM) | 64 µg/mL (≈ 164 µM) | 8 µg/mL (≈ 20.5 µM) | 128 µg/mL (≈ 329 µM) | 8 µg/mL (≈ 20.5 µM) | 0.25 µg/mL (≈ 0.642 µM) | 0.12 µg/mL (≈ 0.308 µM) | 8 µg/mL (≈ 20.5 µM) | 32 µg/mL (≈ 82.2 µM) | 2 µg/mL (≈ 5.14 µM) | 8 µg/mL (≈ 20.5 µM) | 2 µg/mL (≈ 5.14 µM) | 4 µg/mL (≈ 10.3 µM) | 4 µg/mL (≈ 10.3 µM) | 0.5 µg/mL (≈ 1.28 µM) | 1 µg/mL (≈ 2.57 µM) | 2 µg/mL (≈ 5.14 µM) | 2 µg/mL (≈ 5.14 µM) | MIC [14]: 0.12 µg/mL (≈ 0.308 µM); MIC (Gram +; [17]): 1.15 µg/mL; MIC (Gram +; read-out: Log (converted)): 1.15 µg/mL (≈ 2.95 µM)
Nc1cc2c(=O)c(C(=O)O)cn(-c3ccc(F)cc3)c2cc1N1CCSCC1 [Compound 51] | 3.01 µg/mL (≈ 7.53 µM) | 3.01 µg/mL (≈ 7.53 µM) | 0.5 µg/mL (≈ 1.25 µM) | 128 µg/mL (≈ 320 µM) | 4 µg/mL (≈ 10 µM) | 128 µg/mL (≈ 320 µM) | 4 µg/mL (≈ 10 µM) | 0.03 µg/mL (≈ 0.0751 µM) | 0.06 µg/mL (≈ 0.15 µM) | 128 µg/mL (≈ 320 µM) | 128 µg/mL (≈ 320 µM) | 0.5 µg/mL (≈ 1.25 µM) | 4 µg/mL (≈ 10 µM) | 4 µg/mL (≈ 10 µM) | 64 µg/mL (≈ 160 µM) | 4 µg/mL (≈ 10 µM) | 0.5 µg/mL (≈ 1.25 µM) | 2 µg/mL (≈ 5.01 µM) | 2 µg/mL (≈ 5.01 µM) | 0.5 µg/mL (≈ 1.25 µM) | MIC [14]: 0.03 µg/mL (≈ 0.0751 µM); MIC (Gram +; [17]): 2.3 µg/mL; MIC (Gram +; read-out: Log (converted)): 2.3 µg/mL (≈ 5.75 µM)
Nc1cc2c(=O)c(C(=O)O)cn(-c3ccc(F)cc3)c2cc1N1CCc2ccccc2C1 [Compound 52, 6-amino-1-(4-fluorophenyl)-7-[2-(1,2,3,4-tetrahydroisoquinolinyl)]-1,4-dihydro-4-oxo-quinoline carboxylic acid] | 4.56 µg/mL (≈ 10.6 µM) | 4.56 µg/mL (≈ 10.6 µM) | 1 µg/mL (≈ 2.33 µM) | 128 µg/mL (≈ 298 µM) | 8 µg/mL (≈ 18.6 µM) | 128 µg/mL (≈ 298 µM) | 4 µg/mL (≈ 9.31 µM) | 0.12 µg/mL (≈ 0.279 µM) | 0.12 µg/mL (≈ 0.279 µM) | 128 µg/mL (≈ 298 µM) | 128 µg/mL (≈ 298 µM) | 1 µg/mL (≈ 2.33 µM) | 4 µg/mL (≈ 9.31 µM) | 8 µg/mL (≈ 18.6 µM) | 64 µg/mL (≈ 149 µM) | 4 µg/mL (≈ 9.31 µM) | 0.5 µg/mL (≈ 1.16 µM) | 2 µg/mL (≈ 4.66 µM) | 4 µg/mL (≈ 9.31 µM) | 1 µg/mL (≈ 2.33 µM) | MIC [14]: 0.12 µg/mL (≈ 0.279 µM); MIC (Gram +; [17]): 3.03 µg/mL; MIC (Gram +; read-out: Log (converted)): 3.03 µg/mL (≈ 7.06 µM)

— patent EP0531958A1, “6-Aminoquinolones, their synthesis and their use as antibacterial agents” (MEDIOLANUM FARMACEUTICI S.P.A., priority 1991, dated 1993)
